“And” between values parts separate entries of the source, which are not always exact repeats. Identical values can stand only once.

The test system of data set [1] is iPS6.1 cells. Kind of data set: iPS6.1 Four Corners experiment, FGF x HGF cardiac induction. Type of data set: cell-based, human. On the procedure:
(§1) Aggregate formation and cardiac induction procedures of those iPS cells at different initial densities were performed essentially the same as described in Examples 4 except different concentrations of human HGF (hHGF) and FGF were applied to Aggregate Formation Medium, Aggregate Transition Medium and Cardiac Induction Medium.
Concurrent with the second iPS growth factor titration, a simple experiment (Table 19) was set up with iPS6.1 cells to test the 2×2 matrix of 0 and 25 ng/mL FGF and 0 and 50 ng/mL HGF. The positive concentrations of FGF and HGF were chosen based on the current best practices for iPS6.1 cells at the time and were identical to the conditions used for cardiac induction of H1 cells in both the plated and suspension processes. This experiment confirmed previous work showing the necessity of FGF for the process.

The subject of data set [2] is iPS6.1 cells. Kind of data set: iPS6.1 Growth Factor Titration #2. The class given is cell-based, human. The following applies: HGF 0, 20, 50 ng/mL, best performing FGF concentration conditions. How it is done: as §1
Based on the results of the first experiment (see FIGS. 29A-B), the second iPS6.1 growth factor titration focused on the lower dose range for both FGF and HGF (FIGS. 30A-B). […] However, it is important to note that in no case did the omission of HGF lead to the failure of a condition which was otherwise successful in the presence of HGF.

As for “HGF: human recombinant HGF (hepatic growth factor), R&D systems”, the “input iPS:CM” value in data set [1] (iPS6.1 cells, 25 ng/mL FGF and/or 50 ng/mL HGF, single T25 flask, day 14) came out at 6725. In addition, the “% cTNT+” value in data set [1] (iPS6.1 cells, 25 ng/mL FGF and/or 50 ng/mL HGF, single T25 flask, day 14, listed as HGF only) is 0% and 1.5% and 7%. In data set [1] (inclusion of HGF (50 ng/mL) together with FGF (25 ng/mL) versus FGF alone), the Overall culture efficiency entry was “reduced overall culture efficiency”. For the same substance, in data set [2], the “Trend of productivity with HGF concentration” value is “productivity increased with higher HGF concentrations”.

For the origin of these results see US10604739B2, “Cardiomyocyte production” (Cellular Dynamics International, Inc., priority 2009, dated 2020).
